# Measured values taken from article PMC10517971, “An inverse agonist of orphan receptor GPR61 acts by a G protein-competitive allosteric mechanism” (Nature Communications, 2023).
# “And” between values parts separate entries of the source, which are not always exact repeats. Equal entries are not always repeated. Where two headings read alike, the source gives them in different places.
# What was measured:
# Type in all cases: cell-based
# [1] = target: T1, human GPR61 V288A (Homo sapiens, UniProt Q9BZJ8, V288A); experiment: Functional cAMP assay (HTRF), transiently transfected CHO-K1 cells, GPR61 V288A mutant; details: for IC50: Fig. 3e table
# T1 construct: expressed in transfected cells; host or cells: CHO-K1, transient (Fugene6)
# T1 sequence (Q9BZJ8 whole entry V288A): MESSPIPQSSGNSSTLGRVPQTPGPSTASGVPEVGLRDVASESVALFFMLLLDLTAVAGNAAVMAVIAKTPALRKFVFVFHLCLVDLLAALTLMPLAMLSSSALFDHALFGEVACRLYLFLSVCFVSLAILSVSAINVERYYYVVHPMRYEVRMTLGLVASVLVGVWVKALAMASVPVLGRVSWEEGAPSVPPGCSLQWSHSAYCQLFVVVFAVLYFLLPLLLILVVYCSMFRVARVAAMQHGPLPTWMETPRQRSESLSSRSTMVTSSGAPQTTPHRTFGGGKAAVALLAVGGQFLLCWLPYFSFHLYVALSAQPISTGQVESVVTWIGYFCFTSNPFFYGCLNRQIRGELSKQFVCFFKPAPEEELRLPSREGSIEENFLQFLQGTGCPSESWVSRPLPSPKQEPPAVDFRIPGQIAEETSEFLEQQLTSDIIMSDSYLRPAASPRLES
# Description: (§1) The human GPR61 (reference sequence NM_031936.4) cDNA was synthesized and subcloned into pcDNA5/FRT/TO (Thermo Fisher, Pittsburgh, PA). The pcDNA5/FRT/TO/ human GPR61 plasmid was then transfected into the Flp-In™-CHO Cell Line (Thermo Fisher, Pittsburgh, PA) and a doxycycline-inducible clonal cell line was selected (CHO TREx hGPR61 WT). Sequences encoding untagged and HiBit/hemagglutinin (HA)-tagged versions of the wild-type human GPR61 were synthesized and cloned into pcDNA3.1. The HiBit ([…]) and HA ([…]) tags were sequentially included after the N-terminal initiator methionine. Four single amino acid substitutions (N137A, R140A, V288A, N345A) were then introduced in the untagged and tagged human GPR61 constructs using site-specific mutagenesis. The nucleotide sequences of all receptor constructs were confirmed by automated DNA sequencing.
# (§2) Parental CHO-K1 cells were maintained at 37 °C in a humidified environment (5% CO2) and grown in Dulbecco’s Modified Eagle Medium (DMEM) F-12 media (Gibco, 11320033) supplemented with 10% FBS, 1% Glutamax (Gibco, 35050061) and 100units/ml penicillin and streptomycin (Gibco, 15140122. Cells were dissociated using a cell dissociation solution (Gibco, 13151-014), counted, and resuspended in complete culture media without antibiotics. Cells were then transiently transfected using Fugene6 (Promega) in a 384-well plate format (Corning, 3570). For each well, 7500 cells were transfected with 5 ng of receptor plasmid, 20 ng of carrier DNA (Promega, PAE4881) and 0.075 μl Fugene6 in a final volume of 25 μl. Fugene6 and DNA were separately diluted in Optimem media (Gibco, 31985070) (1.25 μl final volume each). Fugene6 and DNA solutions were then combined and incubated for 15 min at room temperature. The cell containing solution (22.5 μl) was then added and transfection reactions were mixed and transferred to the assay plate. Following 24 h incubation at 37 °C, wells were rinsed once and 25 μl of HiBit assay buffer (Phenol-red free DMEM F-12 media containing 2% FBS) was added per well. Surface and total receptor expression was measured separately by adding 25 μl per well of the extracellular (Promega, PRN2421) and lytic (Promega, PRN3040) assay solutions, respectively. Plates were incubated for 10 min at room temperature on a shaker and luciferase activity was measured using an EnVision plate reader (Perkin Elmer, Chicago, IL). Expression was normalized as percent of the wild-type receptor signal. Statistical comparisons of expression levels observed with WT versus GPR61 mutants were made by one-way analysis of variance with Dunnett’s post hoc test.
# A homogeneous Time-Resolved Fluorescence (HTRF) assay (Perkin Elmer, Dynamic2 kit #) was used to assess receptor basal and inverse agonist activity at human GPR61, GPR62, and GPR101. […]
# [2] = target: T2, human GPR61 N137A (Homo sapiens, UniProt Q9BZJ8, N137A); experiment: Functional cAMP assay (HTRF), transiently transfected CHO-K1 cells, GPR61 N137A mutant; design: key to cAMP response (Figure 3e source data): nM cAMP per well, from standard curve; details: for IC50: Fig. 3e table
# T2 construct: expressed in transfected cells; host or cells: CHO-K1, transient (Fugene6)
# T2 sequence (Q9BZJ8 whole entry N137A): as the sequence (Q9BZJ8 whole entry V288A) above, with N137A, A288V counted along it
# Description: as §1, §2
# A homogeneous Time-Resolved Fluorescence (HTRF) assay (Perkin Elmer, Dynamic2 kit #) was used to assess receptor basal and inverse agonist activity at human GPR61, GPR62, and GPR101. For routine inverse agonist screening frozen CHO TREx human GPR61, GPR62 and GPR101 cells were used. Cells were thawed, resuspended in complete assay media (DMEM F-12, 10% HI FBS, 100 μg/mL Normocin, 700 μg/mL Hygromycin B and 15 μg/mL Blasticidin) containing 1ug/ml doxycycline, plated in white 384 well plates (Corning, 3570) at a density of 750 cells/well (25 μl/ well) and cultured at 37 °C in an incubator overnight. For studies assessing basal and inverse agonist activity at human GPR61 mutants, CHO-K1 cells were transiently transfected using Fugene6, plated in white 384 well plates (7500 cells/well) and grown overnight at 37 °C, as described for receptor expression studies. […]
# [3] = target: T3, human GPR101 (Homo sapiens, UniProt Q96P66); experiment: Functional cAMP assay (HTRF), stable CHO TREx human GPR101 cells; details: Supplementary Table 2
# T3 construct: expressed in transfected cells
# T3 sequence (Q96P66 whole entry): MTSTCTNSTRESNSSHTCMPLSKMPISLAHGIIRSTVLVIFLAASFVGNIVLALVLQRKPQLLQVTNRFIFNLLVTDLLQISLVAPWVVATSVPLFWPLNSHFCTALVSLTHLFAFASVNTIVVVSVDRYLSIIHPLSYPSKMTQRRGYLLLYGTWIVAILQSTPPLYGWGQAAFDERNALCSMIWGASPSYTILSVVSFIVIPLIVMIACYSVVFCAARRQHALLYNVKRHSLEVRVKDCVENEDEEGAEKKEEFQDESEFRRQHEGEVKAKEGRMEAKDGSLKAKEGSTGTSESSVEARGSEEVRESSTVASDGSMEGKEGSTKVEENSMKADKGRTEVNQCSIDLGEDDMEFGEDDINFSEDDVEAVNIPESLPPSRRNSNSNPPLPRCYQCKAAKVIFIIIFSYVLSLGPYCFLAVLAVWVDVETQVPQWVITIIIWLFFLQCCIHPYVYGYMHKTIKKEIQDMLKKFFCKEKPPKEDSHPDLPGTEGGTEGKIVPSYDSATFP
# Description: A homogeneous Time-Resolved Fluorescence (HTRF) assay (Perkin Elmer, Dynamic2 kit #) was used to assess receptor basal and inverse agonist activity at human GPR61, GPR62, and GPR101. For routine inverse agonist screening frozen CHO TREx human GPR61, GPR62 and GPR101 cells were used. Cells were thawed, resuspended in complete assay media (DMEM F-12, 10% HI FBS, 100 μg/mL Normocin, 700 μg/mL Hygromycin B and 15 μg/mL Blasticidin) containing 1ug/ml doxycycline, plated in white 384 well plates (Corning, 3570) at a density of 750 cells/well (25 μl/ well) and cultured at 37 °C in an incubator overnight. For studies assessing basal and inverse agonist activity at human GPR61 mutants, CHO-K1 cells were transiently transfected using Fugene6, plated in white 384 well plates (7500 cells/well) and grown overnight at 37 °C, as described for receptor expression studies. […] Data were analyzed using the ratio of fluorescence intensity at 620 and 665 nm for each well, extrapolated from the cAMP standard curve to express data as nM cAMP for each well. […]
smiles,measurement,setting,value
CCOc1cc(C)nc(N(CCOC)S(=O)(=O)c2ccc(NCc3c(F)cncc3F)nc2OC)n1 [Compound 1],IC50,"[1]; HiBit-tagged, read-out: GPR61 cAMP IC50 (95% CI), V288A HiBit-tagged",400 nM
same,IC50,"[1]; untagged, read-out: GPR61 cAMP IC50 (95% CI), V288A Untagged",406 nM
same,cAMP response (Figure 3e source data),"[1]; HiBit V288A, concentration -6",0.67 and 0.63 and 0.87 and 1.10 and 0.64 and 0.60
same,sensitivity of the receptor to inverse agonism in the cAMP assay,[1]; V288A mutant vs wild-type,less sensitive
same,reduction of potency relative to wild-type in the cAMP assay,[2]; Asn137 to Ala mutation vs wild-type,about 100 fold
same,IC50,"[2]; HiBit-tagged, read-out: GPR61 cAMP IC50 (95% CI), N137A HiBit-tagged",3340 nM
same,IC50,"[2]; untagged, read-out: GPR61 cAMP IC50 (95% CI), N137A Untagged",1730 nM
same,cAMP response (Figure 3e source data),"[2]; HiBit N137A, concentration -6.5",4.93 and 5.62 and 3.82 and 3.87 and 6.18 and 6.86
same,cAMP response (Figure 3e source data),"[2]; HiBit N137A, concentration -7.5",4.76 and 5.49 and 3.72 and 4.04 and 6.75 and 6.55
same,cAMP response (Figure 3e source data),"[2]; HiBit N137A, concentration -8",6.63 and 6.17 and 3.76 and 4.15 and 6.97 and 7.08
same,cAMP response (Figure 3e source data),"[2]; HiBit N137A, concentration -9",2.87 and 4.76 and 3.00 and 3.25 and 3.54
same,cAMP response (Figure 3e source data),"[2]; Untagged N137A, concentration -6",4.52 and 4.56 and 3.59 and 3.47 and 5.45 and 5.98
same,IC50,[3],> 29.7 µM
